Biological target: Recombinant full length human PFKFB3 (Homo sapiens, UniProt Q16875)
Assay: PFKFB3 kinase activity assay (ADP production, ADP-Glo)

Recombinant full length human PFKFB3, sequence (Q16875 whole entry): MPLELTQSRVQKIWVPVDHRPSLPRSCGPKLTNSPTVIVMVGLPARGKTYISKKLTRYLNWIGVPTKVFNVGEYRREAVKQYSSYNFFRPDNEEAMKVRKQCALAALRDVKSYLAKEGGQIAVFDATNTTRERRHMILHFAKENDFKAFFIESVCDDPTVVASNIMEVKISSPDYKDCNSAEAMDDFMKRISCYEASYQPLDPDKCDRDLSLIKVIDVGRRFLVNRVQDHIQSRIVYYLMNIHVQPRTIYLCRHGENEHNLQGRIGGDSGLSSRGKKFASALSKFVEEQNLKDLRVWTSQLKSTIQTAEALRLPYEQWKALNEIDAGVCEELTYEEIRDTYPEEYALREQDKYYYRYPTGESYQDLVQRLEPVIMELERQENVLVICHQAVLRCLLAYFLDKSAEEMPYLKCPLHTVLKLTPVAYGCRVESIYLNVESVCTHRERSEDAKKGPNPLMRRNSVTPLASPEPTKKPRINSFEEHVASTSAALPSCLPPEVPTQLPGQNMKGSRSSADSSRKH

Structure (SMILES) | IC50 [nM]
COC(=O)c1ccc(-c2ccccc2)cc1N1Cc2ccc(-c3c[nH]nn3)cc2C1=O [Compound 91, 3-[1-Oxo-6-(1H-[1,2,3]triazol-4-yl)-1,3-dihydroisoindol-2-yl]biphenyl-4-carboxylic acid methyl ester] | < 20000
O=C(O)c1cc(-c2cnn[nH]2)c(Cl)cc1NC(=O)c1cc(-c2ccc(F)c(F)c2)ccc1C(=O)O [Example 19, 3-((2-carboxy-5-chloro-4-(1H-1,2,3-triazol-5-yl)phenyl)carbamoyl)-3′,4′-difluoro-[1,1′-biphenyl]-4-carboxylic acid] | < 500
CN(C)CCOC(=O)c1ccc(-c2ccc(F)c(F)c2)cc1N1Cc2ccc(-c3c[nH]nn3)cc2C1=O [Compound 112, 3′,4′-Difluoro-3-[1-oxo-6-(1H-[1,2,3]triazol-4-yl)-1,3-dihydroisoindol-2-yl]biphenyl-4-carboxylic acid 2-dimethylamino-ethyl ester] | < 20000
CS(=O)(=O)NC(=O)c1ccc2c(c1)C(=O)N(c1cc(-c3ccc(F)c(F)c3)ccc1C(N)=O)C2 [Compound 107, 3′,4′-Difluoro-3-(6-methanesulfonylaminocarbonyl-1-oxo-1,3-dihydroisoindol-2-yl)biphenyl-4-carboxylic acid amide] | < 20000
COC(=O)c1ccc(-c2ccc(F)c(F)c2)cc1N1Cc2ccc(-n3cnnn3)cc2C1=O [Compound 121, 3′,4′-Difluoro-3-(1-oxo-6-tetrazol-1-yl-1,3-dihydroisoindol-2-yl)biphenyl-4-carboxylic acid methyl ester] | < 20000
O=C(OCCN1CCCC1)c1ccc(-c2ccc(F)c(F)c2)cc1N1Cc2ccc(-c3c[nH]nn3)cc2C1=O [Compound 115, 3′,4′-Difluoro-3-[1-oxo-6-(1H-[1,2,3]triazol-4-yl)-1,3-dihydroisoindol-2-yl]biphenyl-4-carboxylic acid 2-pyrrolidin-1-yl-ethyl ester] | < 20000
COC(=O)c1ccc(-c2ccccc2)cc1N1Cc2ccc(C(=O)O)cc2C1=O [Compound 102, 2-(4-Methoxycarbonylbiphenyl-3-yl)-3-oxo-2,3-dihydro-1H-isoindole-5-carboxylic Acid] | < 20000
COC(=O)c1cc(-c2ccccc2)ccc1N1C(=O)c2ccc(C(=O)O)cc2C1=O [Example 12, 2-(3-Methoxycarbonylbiphenyl-4-yl)-1,3-dioxo-2,3-dihydro-1H-isoindole-5-carboxylic acid] | 2000 to 5000
COC(=O)c1cc(-c2ccccc2)ccc1N1C(=O)c2ccc(-c3c[nH]nn3)cc2C1=O [Example 33] | < 20000
O=C(O)c1ccc(-c2ccc(F)c(F)c2)cc1N1Cc2ccc(-c3c[nH]nn3)cc2C1=O [Compound 111, 3′,4′-Difluoro-3-[1-oxo-6-(1H-[1,2,3]triazol-4-yl)-1,3-dihydroisoindol-2-yl]biphenyl-4-carboxylic Acid] | < 500
CS(=O)(=O)NC(=O)c1ccc2c(c1)C(=O)N(c1cc(-c3ccccc3)ccc1C(=O)O)C2=O [Example 25, 3-(5-Methanesulfonylaminocarbonyl-1,3-dioxo-1,3-dihydroisoindol-2-yl)biphenyl-4-carboxylic Acid] | < 500
Cc1oc(=O)oc1COC(=O)c1ccc(-c2ccc(F)c(F)c2)cc1N1Cc2ccc(-c3c[nH]nn3)cc2C1=O [Compound 116, 3′,4′-Difluoro-3-[1-oxo-6-(1H-[1,2,3]triazol-4-yl)-1,3-dihydro-isoindol-2-yl]-biphenyl-4-carboxylic acid (5-methyl-2-oxo-[1,3]dioxol-4-yl)methyl ester] | 5000 to 20000
CCCCOC(=O)c1ccc2c(c1)C(=O)N(c1cc(-c3ccc(F)c(F)c3)ccc1C(=O)O)C2 [Compound 128, 2-(4-Carboxy-3′,4′-difluoro-biphenyl-3-yl)-3-oxo-2,3-dihydro-1H-isoindole-5-carboxylic acid butyl ester] | 5000 to 20000
Cn1cncc1-c1ccc(N2C(=O)c3ccc(C(=O)O)cc3C2=O)c(C(=O)O)c1 [Compound 76, 2-[2-Carboxy-4-(3-methyl-3H-imidazol-4-yl)-phenyl]-1,3-dioxo-2,3-dihydro-1H-isoindole-5-carboxylic Acid] | < 500
O=C(O)c1ccc(-c2ccccc2)cc1N1C(=O)c2ccc(-c3nnn[nH]3)cc2C1=O [Compound 95, 3-[1,3-Dioxo-5-(1H-tetrazol-5-yl)-1,3-dihydroisoindol-2-yl]biphenyl-4-carboxylic Acid] | < 500
O=C(O)c1cc(-c2cn[nH]c2)ccc1N1C(=O)c2ccc(-c3c[nH]nn3)cc2C1=O [Compound 71, 2-[1,3-Dioxo-5-(1H-[1,2,3]triazol-4-yl)-1,3-dihydroisoindol-2-yl]-5-(1H-pyrazol-4-yl)-benzoic Acid] | 500 to 2000
O=C(O)c1ccc2c(c1)C(=O)N(c1cc(-c3ccc(Cl)cc3Cl)ccc1C(=O)O)C2=O [Compound 142, 2-(4-Carboxy-2′,4′-dichloro[1,1′-biphenyl]-3-yl)-1,3-dioxo-2,3-dihydro-1H-isoindole-5-carboxylic acid] | < 500
COc1cc(N2C(=O)c3ccc(C(=O)O)cc3C2=O)ccc1-c1ccccc1 [Example 1] | 5000 to 20000
O=C(O)c1ccc(-c2ccc(F)c(F)c2)cc1NC(=O)c1cc(-c2cnn[nH]2)ccc1C(=O)O [Example 21, 3-(2-carboxy-5-(1H-1,2,3-triazol-5-yl)benzamido)-3′,4′-difluoro-[1,1′-biphenyl]-4-carboxylic acid] | < 500
O=C(O)c1ccc(C(=O)Nc2cc(-c3ccccc3)ccc2C(=O)O)c(C(=O)O)c1 [Example 5, 4-({4-carboxy-[1,1′-biphenyl]-3-yl}carbamoyl)benzene-1,3-dicarboxylic acid] | 500 to 2000

Now from value to compound:

IC50 [nM] | Structure (SMILES)
5000 to 20000 | O=C(O)c1ccc(-c2ccc(F)c(F)c2)cc1N1Cc2ccc(-c3nn[nH]c3CO)cc2C1=O [compound 161, 3′,4′-difluoro-3-(6-(5-(hydroxymethyl)-1H-1,2,3-triazol-4-yl)-1-oxoisoindolin-2-yl)biphenyl-4-carboxylic acid]
< 500 | CC1(C)CCC(c2ccc(C(=O)O)c(NC(=O)c3cc(C(=O)O)c(O)cc3C(=O)O)c2)CC1 [Example 57, 2-{[2-carboxy-5-(4,4-dimethylcyclohexyl)phenyl]carbamoyl}-5-hydroxybenzene-1,4-dicarboxylic acid]
2000 to 5000 | CN(C)C(=O)c1cc(O)c(C(=O)N=S(C)(C)=O)cc1C(=O)Nc1cc(-c2ccc(Cl)cc2Cl)ccc1C(=O)O [Example 42, 2′,4′-dichloro-3-(5-((dimethyl(oxo)-λ^6-sulfanylidene)carbamoyl)-2-(dimethylcarbamoyl)-4-hydroxybenzamido)-[1,1′-biphenyl]-4-carboxylic acid]
< 500 | O=C(O)c1cc(C(=O)O)c(C(=O)Nc2cc(-c3ccc(Cl)cc3Cl)ccc2C(=O)O)cc1F [Example 59, 4-({4-carboxy-2′,4′-dichloro-[1,1′-biphenyl]-3-yl}carbamoyl)-6-fluorobenzene-1,3-dicarboxylic acid]
2000 to 5000 | CN(C)CCOC(=O)c1ccc(-c2ccccc2)cc1N1C(=O)c2ccc(-c3c[nH]nn3)cc2C1=O [Example 66]
< 500 | O=C(O)c1cc(C(=O)Nc2cc(-c3ccc(F)c(F)c3)ccc2O)c(C(=O)O)cc1O [Example 37, 2-({3′,4′-difluoro-4-hydroxy-[1,1′-biphenyl]-3-yl}carbamoyl)-5-hydroxybenzene-1,4-dicarboxylic acid]
< 20000 | O=C(O)c1cc(-c2cncnc2)ccc1N1C(=O)c2ccc(-c3c[nH]nn3)cc2C1=O [Example 64]
< 500 | CCOC(=O)c1ccc(-c2ccc(Cl)cc2Cl)cc1NC(=O)c1cc(C(=O)O)c(O)cc1C(=O)O [Example 60, 2-{[2′,4′-dichloro-4-(ethoxycarbonyl)-[1,1′-biphenyl]-3-yl]carbamoyl}-5-hydroxybenzene-1,4-dicarboxylic acid]
< 500 | O=C(O)c1cc(C(=O)Nc2cc(-c3ccc(Cl)cc3Cl)ccc2C(=O)O)c(C(=O)O)cc1O [Example 44, 2-({4-carboxy-2′,4′-dichloro-[1,1′-biphenyl]-3-yl}carbamoyl)-5-hydroxybenzene-1,4-dicarboxylic acid]
2000 to 5000 | O=C(O)c1ccc(-c2cccs2)cc1N1C(=O)c2ccc(-c3c[nH]nn3)cc2C1=O [Example 56]
< 20000 | COc1ccc(-c2c(C)sc(N3C(=O)c4ccc(C(=O)NCC(=O)O)cc4C3=O)c2C#N)cc1 [compound 149, 2-(2-(3-cyano-4-(4-methoxyphenyl)-5-methylthiophen-2-yl)-1,3-dioxoisoindoline-5-carboxamido)acetic acid]
500 to 2000 | O=C(O)c1ccc(-c2ccc(F)c(F)c2)cc1N1Cc2ccc(-c3nn[nH]c3C(=O)c3ccccc3)cc2C1=O [compound 162, 3-(6-(5-benzoyl-1H-1,2,3-triazol-4-yl)-1-oxoisoindolin-2-yl)-3′,4′-difluorobiphenyl-4-carboxylic acid]
< 20000 | CCOC(=O)c1ccc(-c2ccc(F)c(F)c2)cc1N1C(=O)c2ccc(-c3cnn[nH]3)cc2C1=O [compound 167, ethyl 3-[1,3-dioxo-5-(1H-1,2,3-triazol-5-yl)-1,3-dihydro-2H-isoindol-2-yl]-3′,4′-difluoro[1,1′-biphenyl]-4-carboxylate]
< 500 | O=C(O)c1cc(C(=O)O)c(C(=O)Nc2cc(N3CC4CCC3C4)ccc2C(=O)O)cc1O (stereo not shown) [Example 58, 4-[(5-{2-azabicyclo[2.2.1]heptan-2-yl}-2-carboxyphenyl)carbamoyl]-6-hydroxybenzene-1,3-dicarboxylic acid]
500 to 2000 | COC(=O)c1ccc(-c2ccccc2)cc1N1C(=O)c2ccc(C(=O)O)cc2C1=O [Example 37]
< 20000 | N#Cc1cc(-c2ccccc2)ccc1N1C(=O)c2ccc(C(=O)O)cc2C1=O [compound 145, 2-(3-cyanobiphenyl-4-yl)-1,3-dioxoisoindoline-5-carboxylic acid]
< 500 | CC(COC(=O)c1ccc(-c2ccc(Cl)cc2Cl)cc1NC(=O)c1cc(O)c(C(=O)O)cc1C(=O)O)N(C)C (stereo not shown) [Example 66, 4-[(2′,4′-dichloro-4-{[2-(dimethylamino)propoxy]carbonyl}-[1,1′-biphenyl]-3-yl)carbamoyl]-6-hydroxybenzene-1,3-dicarboxylic acid]

From patent US20230047816A1 (priority 2018, published 2023)
